Laboratory results from US8080529B2, “Macrolides with anti-inflammatory activity” (Glaxo Group Limited, priority 2005, dated 2011).
Read-outs that look alike come from different tables or passages of the source.

Assays:
TNF-α [1] = assay: Inhibition of TNF-α production by stimulated human peripheral blood leukocytes in vitro; format: cell-based; conditions: Homo sapiens, Leukocyte, read-out: Percentage of inhibition of TNF-α production
Method in brief: (§1)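 Dextran-sedimented human PBL (3–5×10^6/well) preincubated 2 h at 37 °C with compounds at 50 μM or 10 μM, then stimulated overnight with LPS 2 μg/mL, PMA 1 μg/mL or zymosan 120 μg/mL. Supernatant cytokines quantified by sandwich ELISA; % inhibition versus stimulated untreated controls.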

IL-1α = assay: Inhibition of IL-1 production by stimulated human peripheral blood leukocytes in vitro; format: cell-based; conditions: Homo sapiens, Leukocyte, read-out: Percentage of inhibition of IL-1α production
IL-6 = assay: Inhibition of IL-6 production by stimulated human peripheral blood leukocytes in vitro; format: cell-based; conditions: Homo sapiens, Leukocyte, read-out: Percentage of inhibition of IL-6 production
Method in brief: as §1

IL-8 = assay: Inhibition of IL-8 production by stimulated human peripheral blood leukocytes in vitro; format: cell-based; conditions: Homo sapiens, Leukocyte, read-out: Percentage of inhibition of IL-8 production
Method in brief: as §1

[2] = tested on: human peripheral blood mononuclear cells (PBMC); assay: Effects on human T-cell proliferation in vitro (3H-thymidine incorporation); format: cell-based; conditions: Homo sapiens, PBMC, read-out: Percentage of inhibition of proliferation of stimulated PBMC
Method in brief: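 Proliferation of human peripheral blood mononuclear cells (PBMC) was assessed in the presence of test compounds. During the final 18 h of culture each well received 1 μCi of ^3H-thymidine. Cells were then collected onto a 96-well filter with a multiple cell harvester, and ^3H-thymidine incorporation was counted on a TopCount NXT to give percentage inhibition of proliferation.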

Hep G2 = assay: Cytotoxicity assay (MTT), Hep G2 cell line; format: cell-based; conditions: 24 h
Method in brief: (§2)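 Viability was read as MTT-formazan absorbance at 490 nm after 0.5-2 h with reagent. This followed 24 h compound exposure (50 μM, 12.5 μM) at 37° C in RPM medium. Result expressed as OD490 treated over untreated cells ×100.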

A549 = assay: Cytotoxicity assay (MTT), A549 cell line; format: cell-based; conditions: 24 h
Method in brief: as §2

TNF-α [3] = assay: Lipopolysaccharide induced TNF-α production in Balb/cJ mice; format: in vivo; conditions: Mus musculus, ip, 1.5 h; 10 mg/kg intraperitoneally, 30 min before LPS; 90 min after LPS; read-out: % inhibition of TNF-α production (plasma)

CC[C@H]1OC(=O)[C@H](C)[C@@H](O[C@H]2C[C@@](C)(OC)[C@@H](OC(=O)CCN(CC)CC)[C@H](C)O2)[C@H](C)[C@@H](O[C@@H]2O[C@H](C)C[C@H](N(C)C)[C@H]2O)[C@](C)(O)C[C@@H](C)CN(C)[C@H](C)[C@H]2OC(=O)O[C@@]21C [Example 1, 11,12-Carbonate-11,12-dideoxy-4″-O-(3-diethylamino-propionyl)-azithromycin]
inhibition at 10 µM (TNF-α [1]; LPS-stimulated PBL): 54% | inhibition at 10 µM (TNF-α [1]; PMA-stimulated PBL): 0% | inhibition at 10 µM (TNF-α [1]; zymosan-stimulated PBL): 88% | inhibition at 50 µM (TNF-α [1]; LPS-stimulated PBL): 100% | inhibition at 50 µM (TNF-α [1]; PMA-stimulated PBL): 94% | inhibition at 50 µM (TNF-α [1]; zymosan-stimulated PBL): 100% | inhibition at 10 µM (IL-1α; LPS-stimulated PBL): 67% | inhibition at 10 µM (IL-1α; PMA-stimulated PBL): 0% | inhibition at 10 µM (IL-1α; zymosan-stimulated PBL): 73% | inhibition at 50 µM (IL-1α; LPS-stimulated PBL): 93% | inhibition at 50 µM (IL-1α; PMA-stimulated PBL): 84% | inhibition at 50 µM (IL-1α; zymosan-stimulated PBL): 83% | inhibition at 10 µM (IL-6; LPS-stimulated PBL): 10% | inhibition at 10 µM (IL-6; PMA-stimulated PBL): 0% | inhibition at 10 µM (IL-6; zymosan-stimulated PBL): 29% | inhibition at 50 µM (IL-6; LPS-stimulated PBL): 94% | inhibition at 50 µM (IL-6; PMA-stimulated PBL): 96% | inhibition at 50 µM (IL-6; zymosan-stimulated PBL): 100% | inhibition at 10 µM (IL-8; LPS-stimulated PBL): 0% | inhibition at 10 µM (IL-8; PMA-stimulated PBL): 0% | inhibition at 10 µM (IL-8; zymosan-stimulated PBL): 29% | inhibition at 50 µM (IL-8; LPS-stimulated PBL): 97% | inhibition at 50 µM (IL-8; PMA-stimulated PBL): 100% | inhibition at 50 µM (IL-8; zymosan-stimulated PBL): 100% | inhibition at 10 µM ([2]; PHA): 95% | inhibition at 50 µM ([2]; PHA): 99% | inhibition at 10 µM ([2]; PMA + iono.): 90% | inhibition at 50 µM ([2]; PMA + iono.): 96% | Percentage of inhibition of cell growth (Hep G2; 12.5 μM): 0% | Percentage of inhibition of cell growth (Hep G2; 50 μM): 15% | Percentage of inhibition of cell growth (A549; 12.5 μM): 0% | Percentage of inhibition of cell growth (A549; 50 μM): 3% | inhibition in vivo at 10 mg/kg (TNF-α [3]): 64%

CC[C@H]1OC(=O)[C@H](C)[C@@H](O[C@H]2C[C@@](C)(OC)[C@@H](OC(=O)CCN(C)C)[C@H](C)O2)[C@H](C)[C@@H](O[C@@H]2O[C@H](C)C[C@H](N(C)C)[C@H]2O)[C@](C)(OC)C[C@@H](C)C(=O)N[C@H](C)[C@@H](O)[C@]1(C)O [Example 12, 4″-O-(3-dimethylamino-propionyl)-6-O-methyl-9a-aza-9a-homoerythromycin A]
inhibition at 10 µM (TNF-α [1]; LPS-stimulated PBL): 23% | inhibition at 10 µM (TNF-α [1]; PMA-stimulated PBL): 49% | inhibition at 10 µM (TNF-α [1]; zymosan-stimulated PBL): 77% | inhibition at 50 µM (TNF-α [1]; LPS-stimulated PBL): 92% | inhibition at 50 µM (TNF-α [1]; PMA-stimulated PBL): 97% | inhibition at 50 µM (TNF-α [1]; zymosan-stimulated PBL): 97% | inhibition at 10 µM (IL-1α; LPS-stimulated PBL): 43% | inhibition at 10 µM (IL-1α; PMA-stimulated PBL): 45% | inhibition at 10 µM (IL-1α; zymosan-stimulated PBL): 88% | inhibition at 50 µM (IL-1α; LPS-stimulated PBL): 95% | inhibition at 50 µM (IL-1α; PMA-stimulated PBL): 90% | inhibition at 50 µM (IL-1α; zymosan-stimulated PBL): 100% | inhibition at 10 µM (IL-6; LPS-stimulated PBL): 16% | inhibition at 10 µM (IL-6; PMA-stimulated PBL): 32% | inhibition at 10 µM (IL-6; zymosan-stimulated PBL): 67% | inhibition at 50 µM (IL-6; LPS-stimulated PBL): 81% | inhibition at 50 µM (IL-6; PMA-stimulated PBL): 67% | inhibition at 50 µM (IL-6; zymosan-stimulated PBL): 91% | inhibition at 10 µM (IL-8; LPS-stimulated PBL): 7% | inhibition at 10 µM (IL-8; PMA-stimulated PBL): 0% | inhibition at 10 µM (IL-8; zymosan-stimulated PBL): 2% | inhibition at 50 µM (IL-8; LPS-stimulated PBL): 72% | inhibition at 50 µM (IL-8; PMA-stimulated PBL): 3% | inhibition at 50 µM (IL-8; zymosan-stimulated PBL): 9% | inhibition at 10 µM ([2]; PHA): 33% | inhibition at 50 µM ([2]; PHA): 99% | inhibition at 10 µM ([2]; PMA + iono.): 29% | inhibition at 50 µM ([2]; PMA + iono.): 96% | Percentage of inhibition of cell growth (Hep G2; 12.5 μM): 0% | Percentage of inhibition of cell growth (Hep G2; 50 μM): 0% | Percentage of inhibition of cell growth (A549; 12.5 μM): 8% | Percentage of inhibition of cell growth (A549; 50 μM): 4% | inhibition in vivo at 10 mg/kg (TNF-α [3]): 69%

CC[C@H]1OC(=O)[C@H](C)[C@@H](O[C@H]2C[C@@](C)(OC)[C@@H](OC(=O)CCN(CC)CC)[C@H](C)O2)[C@H](C)[C@@H](O[C@@H]2O[C@H](C)C[C@H](NC)[C@H]2O)[C@](C)(OC)C[C@@H](C)C(=O)N[C@H](C)[C@@H](O)[C@]1(C)O [Example 54, 3′-N-Demethyl-4″-O-(3-diethylaminopropionyl)-6-O-methyl-9a-aza-9a-homoerythromycin A]
inhibition at 10 µM (TNF-α [1]; LPS-stimulated PBL): 3% | inhibition at 10 µM (TNF-α [1]; PMA-stimulated PBL): 25% | inhibition at 10 µM (TNF-α [1]; zymosan-stimulated PBL): 11% | inhibition at 50 µM (TNF-α [1]; LPS-stimulated PBL): 55% | inhibition at 50 µM (TNF-α [1]; PMA-stimulated PBL): 96% | inhibition at 50 µM (TNF-α [1]; zymosan-stimulated PBL): 92% | inhibition at 10 µM (IL-1α; LPS-stimulated PBL): 60% | inhibition at 10 µM (IL-1α; PMA-stimulated PBL): 62% | inhibition at 10 µM (IL-1α; zymosan-stimulated PBL): 56% | inhibition at 50 µM (IL-1α; LPS-stimulated PBL): 69% | inhibition at 50 µM (IL-1α; PMA-stimulated PBL): 97% | inhibition at 50 µM (IL-1α; zymosan-stimulated PBL): 98% | inhibition at 10 µM (IL-6; LPS-stimulated PBL): 0% | inhibition at 10 µM (IL-6; PMA-stimulated PBL): 0% | inhibition at 10 µM (IL-6; zymosan-stimulated PBL): 9% | inhibition at 50 µM (IL-6; LPS-stimulated PBL): 58% | inhibition at 50 µM (IL-6; PMA-stimulated PBL): 71% | inhibition at 50 µM (IL-6; zymosan-stimulated PBL): 87% | inhibition at 10 µM (IL-8; LPS-stimulated PBL): 0% | inhibition at 10 µM (IL-8; PMA-stimulated PBL): 0% | inhibition at 10 µM (IL-8; zymosan-stimulated PBL): 0% | inhibition at 50 µM (IL-8; LPS-stimulated PBL): 82% | inhibition at 50 µM (IL-8; PMA-stimulated PBL): 40% | inhibition at 50 µM (IL-8; zymosan-stimulated PBL): 53% | Percentage of inhibition of cell growth (Hep G2; 12.5 μM): 1% | Percentage of inhibition of cell growth (Hep G2; 50 μM): 2% | Percentage of inhibition of cell growth (A549; 12.5 μM): 0% | Percentage of inhibition of cell growth (A549; 50 μM): 0% | inhibition in vivo at 10 mg/kg (TNF-α [3]): 58%
